Source: US20090312374A1, “DERIVATIVES OF 4,6-DISUBSTITUTED 1,2,4-TRIAZOLO- 1,3,4-THIADIAZOLE, A PROCESS AND USES THEREOF” (UNIVERSITY OF MYSORE, priority 2005, published 2009)

Assays:
[1] = system: advanced squamous-cell cervical cancer; details: 125 mg/m2 weekly, cited from earlier work
H2AX = assay: Western blot of isolated histones probed with H2AX antibody; type: cell-based; details: HeLa cells, 24 h compound treatment
Protocol: HeLa cells (3×10^6 cells per 90-mm dish) were seeded overnight, and histones were extracted from 24 h of compound treated cells as reported previously. In brief, cells were harvested, washed in ice-cold buffer A (150 mM KCl, 20 mM HEPES, pH 7.9, 0.1 mM EDTA, and 2.5 mM MgCl2) and lysed in buffer A containing 250 mM sucrose and 1% (v/v) Triton X-100. Nuclei were recovered by centrifugation and washed, and proteins were extracted for 1 h using 0.25 M HCl. The proteins were precipitated with 25% (w/v) trichloroacetic acid and sequentially washed with ice-cold acidified acetone (20 μl of 12 N HCl in 100 ml of acetone) and acetone, air-dried, and dissolved in the sample buffer (5.8 M urea, 0.9 M glacial acetic acid, 16% glycerol, and 4.8% 2-mercaptoethanol). The histones (equal amounts in all lanes) were resolved on SDS PAGE gel.
The western blot analysis was done using the isolated histones and probed with H2AX antibody and the results say that 2 of the compounds (NC-2 and NC-5) get hyperphosphorylated.

[2] = system: cervical cancer cell line; assay: Immunofluorescence (Hoechst 33258) apoptosis, TN and NC series, cervical cancer; type: cell-based; details: versus breast cancer and normal cells; FIG. 1
Excerpt: (§1) Subsequently, the cells were washed with PBS.

Breast cancer = assay: Immunofluorescence (Hoechst 33258) apoptosis, TN and NC series, breast cancer; type: cell-based; details: FIG. 1
Excerpt: as §1

[3] = twenty-one patients, advanced squamous-cell cervical cancer

Nc1nncs1
activity in previously treated cervical carcinoma patients [1]: minimal activity | patients with increasing disease [1, 3]: 14 | patients with partial response [1, 3]: One | patients with stable disease [1, 3]: six

CCc1nnc2sc(-c3cccc(Cl)c3Cl)nn12 [NC-2, 6-(2,3-dichlorophenyl)-3-ethyl-[1,2,4]triazolo[3,4-b][1,3,4]thiadiazole]
H2AX phosphorylation (western blot of isolated histones) (H2AX): hyperphosphorylated | selected as specific to cervical cancer cell line i.e. squamous cancer cell lines [2]: selected

Clc1ccc(-c2nnc3sc(-c4cccc(Cl)c4Cl)nn23)cc1 [NC-5, 6-(2,3-dichlorophenyl)-3-(4-chlorophenyl)-[1,2,4]triazolo[3,4-b][1,3,4]thiadiazole]
H2AX phosphorylation (western blot of isolated histones) (H2AX): hyperphosphorylated | selected as specific to cervical cancer cell line i.e. squamous cancer cell lines [2]: selected

CCc1nnc2sc(C3CCc4cc(F)ccc4O3)nn12 (stereo not drawn) [TN-2, 6-(6-fluorochroman-2-yl)-3-ethyl-[1,2,4]triazolo[3,4-b][1,3,4]thiadiazole]
extent of apoptosis (Breast cancer): little apoptosis

Fc1ccc2c(c1)CCC(c1nn3c(-c4ccccc4)nnc3s1)O2 (stereo not drawn) [TN-3, 6-(6-fluorochroman-2-yl)-3-phenyl-[1,2,4]triazolo[3,4-b][1,3,4]thiadiazole]
selected as specific to cervical cancer cell line i.e. squamous cancer cell lines [2]: selected

Cc1ccc(-c2nnc3sc(C4CCc5cc(F)ccc5O4)nn23)cc1 (stereo not drawn) [TN-4, 6-(6-fluorochroman-2-yl)-3-p-tolyl-[1,2,4]triazolo[3,4-b][1,3,4]thiadiazole]
selected as specific to cervical cancer cell line i.e. squamous cancer cell lines [2]: selected

Fc1ccc2c(c1)CCC(c1nn3c(-c4ccc(Cl)cc4)nnc3s1)O2 (stereo not drawn) [TN-5, 3-(4-chlorophenyl)-6-(6-fluorochroman-2-yl)-[1,2,4]triazolo[3,4-b][1,3,4]thiadiazole]
extent of apoptosis (Breast cancer): little apoptosis
